Test results as given in patent publication US20220257491A1, “Prebiotic Oral Care Compositions and Methods” (Colgate-Palmolive Company, priority 2021, published 2022).
Marks after values point to notes of the source that are not given here.

Assays:
Format in all cases: cell-based
[1] = test system: human oral keratinocytes (HOK-18A); assay: Inflammatory mediator gene expression in keratinocytes exposed to substrate-treated biofilms; conditions: for Fold change in inflammatory mediator gene expression: IL-1β / Fold change in inflammatory mediator gene expression: IL-6 / Fold change in inflammatory mediator gene expression: IL-8 / Fold change in inflammatory mediator gene expression: MMP-8 / Fold change in inflammatory mediator gene expression: TNF-α: relative to control (=1), geometric mean (95% C.I.) n=3
Method: (§1) Cultures of immortalized human oral keratinocytes (HOK-18A) are grown. The relative inflammatory potential of the substrate-treated multi-species biofilms is evaluated by analyzing the expression of five inflammatory mediator genes in human oral keratinocytes (HOKs) exposed to the substrate-treated biofilms. […] The IL-8 levels in the cellular supernatant are determined as well. RNA is converted to cDNA and relative expression of inflammatory mediator genes is determined as described above with respect to the cellular housekeeping gene (3-actin.
In HOKs exposed to substrate-treated (substrate concentrations of 1 M) multi-species biofilms, mostly decreases in inflammatory mediator gene expression are observed and measured via SYBR RT-qPCR, the results of which are detailed in Table 6.
(§2) All substrates are dissolved in PBS at a concentration of 1 M (upper part) or 1% (w/v) (lower part). Values between 0 and 1 represent relative downregulation, values >1 represent relative upregulation. […] For such values, statistically significant differences between two experimental conditions are marked with ‘#1’ (vs. NADM), ‘#2’ (vs. NADG), ‘#3’ (vs. D-(+)-mannose) (P<0.05).

[2] = test system: P. intermedia; assay: Multi-species biofilm composition: absolute abundance of P. intermedia; conditions: mean±SD n=3
Method: (§3) Biofilms are grown vertically on Calcium Deficient Hydroxyapatite (CAD-HA) disks (Hitemco Medical, Old Bethpage, USA) using the Amsterdam Active Adhesion model. Biofilms are allowed to establish during 24 h (37° C., 170 rpm) under micro-aerophilic conditions (6% O2, 7% CO2, 7% H2, 80% N2). After this 24 h, disks are rinsed 3 times a day for 3 minutes (RT, 250 rpm), for 3 consecutive days, by transferring the lid containing the disks to a new 24-well plate containing 2 mL/well of the appropriate substrate solution. As a negative control, PBS (pH 5.7) without substrate supplementation is used. After each rinsing step, disks are shortly dip-rinsed in a new 24-well plate containing fresh modified BHI medium (2 mL/well) to remove remaining substrate traces. Subsequently, the lid is transferred to another 24-well plate containing fresh modified BHI medium (2 mL/well), followed by incubation (micro-aerophilic, 37° C., 170 rpm) until the next rinsing step.
(§4) NADM, N-acetyl-D-glucosamine (“NADG”) and D-(+)-mannose are selected to determine their effects on multi-species biofilm composition. Repeated rinsing of the biofilms with the substrates at a concentration of 1M results in a significant decrease in absolute numbers in at least four of the pathogenic bacterial species tested in the assay, compared to the control, the results of which are described in Table 1 below. Absolute abundances of bacterial species are shown as mean±SD (n=3) logarithmic values of the genome equivalents per millilitre (log(Geq/mL)).

[3] = test system: human oral keratinocytes (HOK-18A); assay: IL-8 levels in supernatants of keratinocyte cultures exposed to substrate-treated biofilms; conditions: mean±SD n=3
Method: as §1
as §2, with “Table 7: IL-8 levels detected in the supernatants of human oral keratinocytes (HOK-18A) cultures exposed to substrate-treated multi-species biofilms are shown as mean±SD (n=3) values (pg/mL). All” for “All”

[4] = test system: S. mutans; assay: Multi-species biofilm composition: absolute abundance of S. mutans; conditions: mean±SD n=3
Method: as §3, §4

[5] = test system: F. nucleatum virulence genes; assay: Multi-species biofilm virulence gene expression, SYBR RT-qPCR: F. nucleatum; conditions: for Fold Change in virulence gene expression: ABC transp. perm. / Fold Change in virulence gene expression: EF-G / Fold Change in virulence gene expression: but.-coA transf. / Fold Change in virulence gene expression: hemin receptor / Fold Change in virulence gene expression: hemolysin / Fold Change in virulence gene expression: ompA / Fold Change in virulence gene expression: transposase: relative to control (=1), 2^-ΔΔCt, geometric mean n=3
Method: as §3
(§5) The expression of 33 virulence genes from 4 periodontal pathogens is analysed to evaluate the relative virulence of the substrate-treated biofilms. For all three substrates, virulence gene expression is determined relatively to the control, and these values are also compared between substrates when this is relevant (Tables 5a-5d).

[6] = test system: S. salivarius; assay: Multi-species biofilm composition: absolute abundance of S. salivarius; conditions: mean±SD n=3
Method: as §3, §4

[7] = test system: P. gingivalis virulence genes; assay: Multi-species biofilm virulence gene expression, SYBR RT-qPCR: P. gingivalis; conditions: relative to control, 2^-ΔΔCt, geometric mean n=3
Method: as §3, §5

[8] = test system: A. naeslundii; assay: Multi-species biofilm composition: absolute abundance of A. naeslundii; conditions: mean±SD n=3
Method: as §3, §4

[9] = test system: S. oralis; assay: Multi-species biofilm composition: absolute abundance of S. oralis; conditions: mean±SD n=3
Method: as §3
NADM, N-acetyl-D-glucosamine (“NADG”) and D-(+)-mannose are selected to determine their effects on multi-species biofilm composition. […] decrease in absolute numbers in at least four of the pathogenic bacterial species tested in the assay, compared to the control, the results of which are described in Table 1 below. Absolute abundances of bacterial species are shown as mean±SD (n=3) logarithmic values of the genome equivalents per millilitre (log(Geq/mL)).

[10] = biofilm rinsed with substrate 1%
[11] = biofilm rinsed with substrate 1M

Compound: O=C[C@@H](O)[C@@H](O)[C@H](O)[C@H](O)CO [D-mannose, D-(+)-mannose]
- Fold change in inflammatory mediator gene expression: IL-1β [1, 10]: 0.79 (0.43-1.48) fold
- Fold change in inflammatory mediator gene expression: IL-6 [1, 10]: 0.79 (0.60-1.06) fold
- Fold change in inflammatory mediator gene expression: IL-8 [1, 10]: 1.22 (0.79-1.86) fold
- Fold change in inflammatory mediator gene expression: MMP-8 [1, 10]: 0.40 (0.27-0.58)* fold
- Fold change in inflammatory mediator gene expression: TNF-α [1, 10]: 0.770.48-1.23) fold
- Fold change in inflammatory mediator gene expression: IL-1β [1, 11]: 0.81 (0.59-1.12) fold
- Fold change in inflammatory mediator gene expression: IL-6 [1, 11]: 0.63 (0.41-0.97) fold
- Fold change in inflammatory mediator gene expression: IL-8 [1, 11]: 0.12 (0.06-0.27)* fold
- Fold change in inflammatory mediator gene expression: MMP-8 [1, 11]: 1.25 (1.10-1.42) fold
- Fold change in inflammatory mediator gene expression: TNF-α [1, 11]: 0.77 (0.37-1.60) fold
- Decreased MMP-8 gene expression ([1]; substrate 1%(w/v)): 2.5 fold
- Absolute abundance Pi (P. intermedia) ([2]; substrate 1%(w/v) in PBS): 8.06 ± 0.19 log(Geq/mL)
- Absolute abundance Pi (P. intermedia) ([2]; substrate 1 M in PBS): 7.80 ± 0.57 log(Geq/mL)
- IL-8 levels in supernatants of HOK-18A cultures ([3]; biofilm rinsed with substrate 1%(w/v)): 51.09 ± 13.89 pg/mL
- IL-8 levels in supernatants of HOK-18A cultures [3, 11]: 0.06 ± 0.04 pg/mL
- Absolute abundance S. mutans ([4]; substrate 1%(w/v) in PBS): 7.34 ± 0.12 log(Geq/mL)
- Absolute abundance S. mutans ([4]; substrate 1 M in PBS): 8.60 ± 0.09 log(Geq/mL)
- Fold Change in virulence gene expression: ABC transp. perm. ([5]; substrate 1%): 0.73 fold
- Fold Change in virulence gene expression: EF-G ([5]; substrate 1%): 0.13 fold
- Fold Change in virulence gene expression: but.-coA transf. ([5]; substrate 1%): 0.37 fold
- Fold Change in virulence gene expression: hemin receptor ([5]; substrate 1%): 0.26 fold
- Fold Change in virulence gene expression: hemolysin ([5]; substrate 1%): 0.89 fold
- Fold Change in virulence gene expression: ompA ([5]; substrate 1%): 1.17 fold
- Fold Change in virulence gene expression: transposase ([5]; substrate 1%): 1.38 fold
- F. nucleatum butyrate acetoacetate CoA transferase gene, upregulation ([5]; substrate 1 M): 2.3 fold
- F. nucleatum hemolysin gene, upregulation ([5]; substrate 1 M): 2.1 fold
- Fold Change in virulence gene expression: ABC transp. perm. ([5]; substrate 1M): 2.65 fold
- Fold Change in virulence gene expression: EF-G ([5]; substrate 1M): 1.36 fold
- Fold Change in virulence gene expression: but.-coA transf. ([5]; substrate 1M): 2.27 fold
- Fold Change in virulence gene expression: hemin receptor ([5]; substrate 1M): 3.82 fold
- Fold Change in virulence gene expression: hemolysin ([5]; substrate 1M): 2.14 fold
- Fold Change in virulence gene expression: ompA ([5]; substrate 1M): 1.36 fold
- Fold Change in virulence gene expression: transposase ([5]; substrate 1M): 1.46 fold
- Absolute abundance S. sal. (S. salivarius) ([6]; substrate 1%(w/v) in PBS): 2.89 ± 0.35 log(Geq/mL)
- Absolute abundance S. sal. (S. salivarius) ([6]; substrate 1 M in PBS): 3.63 ± 0.90 log(Geq/mL)
- Fold Change in virulence gene expression: fimA ([7]; substrate 1%): 2.50 fold
- Fold Change in virulence gene expression: kgp ([7]; substrate 1%): 3.07 fold
- Fold Change in virulence gene expression: partC ([7]; substrate 1%): 0.60 fold
- Fold Change in virulence gene expression: rgpA ([7]; substrate 1%): 1.85 fold
- Fold Change in virulence gene expression: fimA ([7]; substrate 1M): 1.17 fold
- Fold Change in virulence gene expression: kgp ([7]; substrate 1M): 0.44 fold
- Fold Change in virulence gene expression: partC ([7]; substrate 1M): 0.09 fold
- Fold Change in virulence gene expression: rgpA ([7]; substrate 1M): 0.18 fold
- Absolute abundance An (A. naeslundii) ([8]; substrate 1%(w/v) in PBS): 7.59 ± 0.05 log(Geq/mL)
- Absolute abundance An (A. naeslundii) ([8]; substrate 1 M in PBS): 5.54 ± 0.24 log(Geq/mL)
- Absolute abundance S. oralis ([9]; substrate 1%(w/v) in PBS): 6.27 ± 0.21 log(Geq/mL)
- Absolute abundance S. oralis ([9]; substrate 1 M in PBS): 6.83 ± 0.09 log(Geq/mL)
